We go through eleven compounds from PubChem BioAssay (NCI).

Each structure is given as a SMILES string.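 Each compound was tested at five concentrations against cells in 96-well plates for 48 hours. Definition used: TGI = concentration required for complete inhibition of growth.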

Among the test systems are NCI/ADR-RES ovarian; HOP-92 NSCLC; SW-620 colon; HS 578T breast; SK-MEL-2 melanoma; CCRF-CEM leukemia; MALME-3M melanoma; CAKI-1 renal; EKVX NSCLC; M14 melanoma; BT-549 breast; A549 NSCLC; MDA-N; MDA-MB-435.
Holding throughout (assay): NCI anticancer screen, dose series, 48 h

For the compound `CC(C)CC(N)C(=O)NC(C(=O)NC(CCCNC(=N)N)C(=O)NC(CS)C(=O)NC1CSCC(C(=O)NC(Cc2ccccc2)C(=O)NC(C(=O)NC(CCCNC(=N)N)C(=O)O)C(C)C)NC(=O)C2CCCN2C(=O)C(CCCCN)NC(=O)C2CCCN2C(=O)C2CCCN2C(=O)C(Cc2ccc(O)cc2)NC(=O)C(CO)NC(=O)C(CCCCN)NC(=O)C(C(C)O)NC(=O)C(Cc2c[nH]c3ccccc23)NC1=O)C(C)C` (centres undefined), the TGI with NCI/ADR-RES ovarian, in the experiment with HOP-92 NSCLC, in the experiment on SW-620 colon, in the experiment with HS 578T breast, in the experiment on SK-MEL-2 melanoma and with CCRF-CEM leukemia was above 25 µM throughout. Also, the TGI in the experiment on MALME-3M melanoma, with CAKI-1 renal, in the experiment on EKVX NSCLC, in the experiment on M14 melanoma, with BT-549 breast and with A549 NSCLC was above 25 µM in each case. The TGI in the experiment with MDA-N and with MDA-MB-435 was above 25 µM in each case.

As to `COC(=O)/C=C\C(C#N)(C#N)N=Cc1ccc(OC)cc1`, the TGI in the experiment with NCI/ADR-RES ovarian was found to be 9.09 µM; in the experiment on HOP-92 NSCLC, 4.61 µM; in the experiment on SW-620 colon, 14.6 µM; in the experiment with HS 578T breast, 33.7 µM; in the experiment with SK-MEL-2 melanoma it was 35.5 µM; in the experiment with CCRF-CEM leukemia, 2.53 µM. Besides, the TGI in the experiment on MALME-3M melanoma came out at 4.01 µM; in the experiment with CAKI-1 renal, 4.48 µM; in the experiment on EKVX NSCLC, 32 µM; in the experiment with M14 melanoma, 8.77 µM; in the experiment with BT-549 breast it was 10.4 µM; in the experiment with A549 NSCLC, 38.3 µM. In addition, the TGI with MDA-N amounted to 16.5 µM; with MDA-MB-435 it was 5.44 µM.

For `Nc1nc(SCC(=O)c2ccc(Br)cc2)c2[nH]cnc2n1`, the TGI with NCI/ADR-RES ovarian was 93.6 µM; with HOP-92 NSCLC, 62.1 µM; in the experiment with SW-620 colon it was above 100 µM; with HS 578T breast, 81.9 µM; with SK-MEL-2 melanoma, above 100 µM; in the experiment on CCRF-CEM leukemia it was 47.8 µM. Besides, the TGI with MALME-3M melanoma, in the experiment on CAKI-1 renal, in the experiment on EKVX NSCLC, in the experiment on M14 melanoma, in the experiment with BT-549 breast and in the experiment with A549 NSCLC was above 100 µM throughout. Besides, the TGI in the experiment with MDA-N and with MDA-MB-435 was above 100 µM in each case.

For `CCOc1nc2c(N3CCCC3)nc(N3CCNCC3)nc2nc1NCc1ccccc1`, the TGI with NCI/ADR-RES ovarian amounted to 8.6 µM; in the experiment on HOP-92 NSCLC, 2.5 µM; with SW-620 colon, 3.49 µM; with HS 578T breast, 3.53 µM; with SK-MEL-2 melanoma, 3.11 µM; in the experiment with CCRF-CEM leukemia it was 3.49 µM. Moreover, the TGI with MALME-3M melanoma was determined as 3.3 µM; in the experiment on CAKI-1 renal, 6.71 µM; in the experiment with EKVX NSCLC, 4.33 µM; with M14 melanoma it was 2.98 µM; in the experiment on BT-549 breast, 3.51 µM; in the experiment on A549 NSCLC, 4.26 µM. The TGI turned out to be 2.31 µM with MDA-N and 2.72 µM in the experiment with MDA-MB-435.

Turning to `COc1ccc2nc3ccc(OC)cc3c(SCCCl)c2c1`, the TGI in the experiment on NCI/ADR-RES ovarian is above 58.7 µM; in the experiment with HOP-92 NSCLC it was above 42.2 µM; in the experiment with SW-620 colon, above 100 µM; in the experiment with HS 578T breast, above 100 µM; with SK-MEL-2 melanoma it was above 85.1 µM; with CCRF-CEM leukemia it was 16 µM. The TGI with MALME-3M melanoma was above 100 µM; in the experiment with CAKI-1 renal it was 66.8 µM; with EKVX NSCLC, above 100 µM; with M14 melanoma it was above 21.3 µM; in the experiment with BT-549 breast, above 100 µM; with A549 NSCLC it was above 100 µM. The TGI in the experiment with MDA-N was above 100 µM; in the experiment with MDA-MB-435 it was above 49.5 µM.

Take `CC1=NN(c2nc(N)nc(/C(C#N)=C\c3ccc(-c4ccc([N+](=O)[O-])cc4)o3)n2)C(C)(C)C1`: the TGI in the experiment on NCI/ADR-RES ovarian, in the experiment with HOP-92 NSCLC, in the experiment on SW-620 colon, in the experiment on HS 578T breast, with SK-MEL-2 melanoma and in the experiment on CCRF-CEM leukemia was above 100 µM throughout. The TGI in the experiment on MALME-3M melanoma, in the experiment with CAKI-1 renal, in the experiment on EKVX NSCLC, with M14 melanoma, in the experiment with BT-549 breast and in the experiment with A549 NSCLC was above 100 µM throughout. For the same compound, the TGI in the experiment on MDA-N and with MDA-MB-435 was above 100 µM throughout.

Regarding `O=C1c2c(Br)sc(Br)c2[C@@H](O)[C@H]1O`, the TGI amounted to 56.5 µM with NCI/ADR-RES ovarian; 35.3 µM with HOP-92 NSCLC; 12.3 µM in the experiment on SW-620 colon; 63.5 µM in the experiment with HS 578T breast; 32.6 µM in the experiment on SK-MEL-2 melanoma; 6.32 µM in the experiment with CCRF-CEM leukemia. Besides, the TGI turned out to be 40.6 µM in the experiment with MALME-3M melanoma; 33.7 µM in the experiment on CAKI-1 renal; 34 µM in the experiment on EKVX NSCLC; 26.5 µM with M14 melanoma; 35.6 µM in the experiment on BT-549 breast; 45 µM in the experiment with A549 NSCLC. Moreover, the TGI turned out to be 31.8 µM in the experiment on MDA-N and 25.8 µM with MDA-MB-435.

As to `Oc1ccccc1C=Nc1ccc(-c2nc3ccccc3s2)cc1`, the TGI in the experiment on NCI/ADR-RES ovarian was above 100 µM; with HOP-92 NSCLC, 56.4 µM; with SW-620 colon, above 100 µM; in the experiment on HS 578T breast it was above 100 µM; with SK-MEL-2 melanoma, 50.5 µM; in the experiment on CCRF-CEM leukemia it was above 100 µM. The TGI with MALME-3M melanoma was above 100 µM; in the experiment on CAKI-1 renal, above 100 µM; in the experiment on EKVX NSCLC it was 85.2 µM; with M14 melanoma it was above 100 µM; in the experiment on BT-549 breast, above 100 µM; in the experiment with A549 NSCLC, above 100 µM. For the same compound, the TGI in the experiment with MDA-N and in the experiment on MDA-MB-435 was above 100 µM each time.

For the compound `CN(CCc1ccccn1)c1ccc2c(c1)C(=O)c1ccccc1-2`, the TGI in the experiment with NCI/ADR-RES ovarian, in the experiment on HOP-92 NSCLC, with SW-620 colon, in the experiment with HS 578T breast, in the experiment on SK-MEL-2 melanoma and with CCRF-CEM leukemia was above 100 µM each time. Moreover, the TGI in the experiment on MALME-3M melanoma, in the experiment with CAKI-1 renal, in the experiment on EKVX NSCLC, with M14 melanoma, in the experiment on BT-549 breast and with A549 NSCLC was above 100 µM each time. The TGI in the experiment on MDA-N and in the experiment on MDA-MB-435 was above 100 µM each time.

Take `COC(=O)c1c(O)ccc2c1c1c(n2Cc2cc(OC)cc(OC)c2)C(=O)c2ccccc2C1=O`: the TGI is 21.8 µM with NCI/ADR-RES ovarian; 24.6 µM in the experiment on HOP-92 NSCLC; above 100 µM in the experiment with SW-620 colon; 45.9 µM in the experiment with HS 578T breast; 27.2 µM with SK-MEL-2 melanoma; 78.6 µM with CCRF-CEM leukemia. Further, the TGI with MALME-3M melanoma turned out to be 22.4 µM; in the experiment with CAKI-1 renal, 56.7 µM; with EKVX NSCLC, 51.5 µM; in the experiment with M14 melanoma, 26.2 µM; in the experiment on BT-549 breast, 29 µM; in the experiment with A549 NSCLC, 31.3 µM. For the same compound, the TGI is 34.3 µM in the experiment with MDA-N and 12.9 µM with MDA-MB-435.

Regarding `CN1CCC(C(O)(c2ccccc2)c2ccc(Br)cc2)CC1` (centres undefined), the TGI with NCI/ADR-RES ovarian was above 100 µM; in the experiment on HOP-92 NSCLC, 70.4 µM; in the experiment with SW-620 colon, 61.1 µM; with HS 578T breast, above 100 µM; in the experiment with SK-MEL-2 melanoma, 30.3 µM; in the experiment on CCRF-CEM leukemia, above 100 µM. Also, the TGI with MALME-3M melanoma is 27.6 µM; in the experiment with CAKI-1 renal it was above 100 µM; in the experiment on EKVX NSCLC it was above 100 µM; in the experiment on M14 melanoma, 28.7 µM; with BT-549 breast, above 100 µM; with A549 NSCLC it was above 100 µM. Further, the TGI in the experiment with MDA-N was 28.2 µM; in the experiment on MDA-MB-435, 30.7 µM.
